# Measurements: patent US6350585B1, “Reagent for assay of amylase isozyme activity” (priority 1998, dated 2002)
# Target: T1, P-type amylase (Calibzyme P) (Homo sapiens, UniProt P04746)
# T1 construct: purchased International Reagents Corporation Calibzyme P
# T1 sequence (P04746 16-511): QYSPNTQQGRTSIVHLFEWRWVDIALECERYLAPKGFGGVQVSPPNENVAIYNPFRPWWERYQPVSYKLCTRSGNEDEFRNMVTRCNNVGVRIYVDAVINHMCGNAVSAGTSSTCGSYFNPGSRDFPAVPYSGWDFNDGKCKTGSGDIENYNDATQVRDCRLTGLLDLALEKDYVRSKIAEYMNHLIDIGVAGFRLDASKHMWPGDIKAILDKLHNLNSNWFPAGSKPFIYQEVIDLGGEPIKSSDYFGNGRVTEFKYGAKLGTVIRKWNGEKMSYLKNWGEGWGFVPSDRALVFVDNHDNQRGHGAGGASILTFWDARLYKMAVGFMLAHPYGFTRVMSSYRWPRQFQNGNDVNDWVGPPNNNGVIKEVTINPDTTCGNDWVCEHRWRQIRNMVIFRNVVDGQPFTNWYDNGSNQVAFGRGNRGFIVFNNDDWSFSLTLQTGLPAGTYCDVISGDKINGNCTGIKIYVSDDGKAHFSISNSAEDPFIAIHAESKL
# Test: amylase isozyme activity assay with potassium thiocyanate as activator, P-type amylase sample
# Type: biochemical
# Conditions: for Change in absorbance, Containing Antibody (Composition A) / Change in absorbance, Without antibody (Composition B) / Relative sensitivity / Percent residual enzyme activity: P-type amylase; for Relative sensitivity: G3CNP at 900 mM = 100; for Percent residual enzyme activity: composition A/B; for relative sensitivity of P-type amylase as multiple of the standard sensitivity: standard = G3CNP at 900 mM
# Protocol: A reagent for amylase isozyme activity assay comprising each composition as mentioned below was prepared. In the Table showing the composition, GalG2CNP (Example) is 2-chloro-4-nitrophenyl 4-O-β-D-galactopyranosylmaltoside, and G3CNP (Comparative Example) is 2-chloro-4-nitrophenylmaltotrioside.
# S-type amylase-inhibiting antibody 88E8 (manufactured by Roche Diagnostics K.K.) 20 mg/L
# S-type amylase-inhibiting antibody 66C7 (manufactured by Roche Diagnostics K.K.) 5 mg/L
# Substrate (GalG2CNP (Example) or G3CNP (Comparative Example)) 2.6 mM
# (2) P-type Amylase (Calibzyme P, Manufactured by International Reagents Corporation)
# Each sample (0.05 mL was added to the reagent A (3 mL) and the reagent B (3 mL), respectively, and the mixtures were allowed to stand at 37° C. for 3 minutes. Then, the change in absorbance at 405 nm was assayed, and the change in absorbance per minute was calculated. The results are shown in Tables 1 and 2.
# In the Tables, P is the case where P-type amylase was used as the sample, and S is the case where S-type amylase was used.
# Percent residual enzyme activity (%)=(change in absorbance of composition A)/(change in absorbance of composition B)×100
# Relative sensitivity (%)=(change in absorbance of composition B)/(change in absorbance of Comparative Example wherein potassium thiocyanate was 900 mM)×100
structure (smiles),measurement,setting,value
"O=[N+]([O-])c1ccc(O[C@H]2O[C@H](CO)[C@@H](O[C@H]3O[C@H](CO)[C@@H](O[C@@H]4O[C@H](CO)[C@H](O)[C@H](O)[C@H]4O)[C@H](O)[C@H]3O)[C@H](O)[C@H]2O)c(Cl)c1 [GalG2CNP, 2-chloro-4-nitrophenyl 4-O-β-D-galactopyranosylmaltoside]","Change in absorbance, Containing Antibody (Composition A)",potassium thiocyanate 0 mM,26.2 mABS/min
same,"Change in absorbance, Without antibody (Composition B)",potassium thiocyanate 0 mM,26.7 mABS/min
same,Relative sensitivity,potassium thiocyanate 0 mM,55.7%
same,Percent residual enzyme activity,potassium thiocyanate 0 mM,98.1%
same,"Change in absorbance, Containing Antibody (Composition A)",potassium thiocyanate 50 mM,40.6 mABS/min
same,"Change in absorbance, Without antibody (Composition B)",potassium thiocyanate 50 mM,42.1 mABS/min
same,Relative sensitivity,potassium thiocyanate 50 mM,87.9%
same,Percent residual enzyme activity,potassium thiocyanate 50 mM,96.4%
same,"Change in absorbance, Containing Antibody (Composition A)",potassium thiocyanate 100 mM,49.3 mABS/min
same,"Change in absorbance, Without antibody (Composition B)",potassium thiocyanate 100 mM,51.1 mABS/min
same,Relative sensitivity,potassium thiocyanate 100 mM,106.7%
same,Percent residual enzyme activity,potassium thiocyanate 100 mM,96.5%
same,"Change in absorbance, Containing Antibody (Composition A)",potassium thiocyanate 140 mM,52.4 mABS/min
same,"Change in absorbance, Without antibody (Composition B)",potassium thiocyanate 140 mM,56.0 mABS/min
same,Relative sensitivity,potassium thiocyanate 140 mM,116.9%
same,Percent residual enzyme activity,potassium thiocyanate 140 mM,93.6%
same,"Change in absorbance, Containing Antibody (Composition A)",potassium thiocyanate 200 mM,59.5 mABS/min
same,"Change in absorbance, Without antibody (Composition B)",potassium thiocyanate 200 mM,61.9 mABS/min
same,Relative sensitivity,potassium thiocyanate 200 mM,129.2%
same,Percent residual enzyme activity,potassium thiocyanate 200 mM,96.1%
same,"Change in absorbance, Containing Antibody (Composition A)",potassium thiocyanate 300 mM,66.6 mABS/min
same,"Change in absorbance, Without antibody (Composition B)",potassium thiocyanate 300 mM,69.1 mABS/min
same,Relative sensitivity,potassium thiocyanate 300 mM,144.3%
same,Percent residual enzyme activity,potassium thiocyanate 300 mM,96.4%
same,"Change in absorbance, Containing Antibody (Composition A)",potassium thiocyanate 400 mM,70.3 mABS/min
same,"Change in absorbance, Without antibody (Composition B)",potassium thiocyanate 400 mM,71.7 mABS/min
same,Relative sensitivity,potassium thiocyanate 400 mM,149.7%
same,Percent residual enzyme activity,potassium thiocyanate 400 mM,98.0%
same,"Change in absorbance, Containing Antibody (Composition A)",potassium thiocyanate 500 mM,71.3 mABS/min
same,"Change in absorbance, Without antibody (Composition B)",potassium thiocyanate 500 mM,70.9 mABS/min
same,Relative sensitivity,potassium thiocyanate 500 mM,148.0%
same,Percent residual enzyme activity,potassium thiocyanate 500 mM,100.6%
same,"Change in absorbance, Containing Antibody (Composition A)",potassium thiocyanate 600 mM,70.4 mABS/min
same,"Change in absorbance, Without antibody (Composition B)",potassium thiocyanate 600 mM,68.0 mABS/min
same,Relative sensitivity,potassium thiocyanate 600 mM,142.0%
same,Percent residual enzyme activity,potassium thiocyanate 600 mM,103.5%
same,"Change in absorbance, Containing Antibody (Composition A)",potassium thiocyanate 700 mM,67.9 mABS/min
same,"Change in absorbance, Without antibody (Composition B)",potassium thiocyanate 700 mM,67.2 mABS/min
same,Relative sensitivity,potassium thiocyanate 700 mM,140.3%
same,Percent residual enzyme activity,potassium thiocyanate 700 mM,101.0%
same,"Change in absorbance, Containing Antibody (Composition A)",potassium thiocyanate 800 mM,63.7 mABS/min
same,"Change in absorbance, Without antibody (Composition B)",potassium thiocyanate 800 mM,62.6 mABS/min
same,Relative sensitivity,potassium thiocyanate 800 mM,130.7%
same,Percent residual enzyme activity,potassium thiocyanate 800 mM,101.8%
same,"Change in absorbance, Containing Antibody (Composition A)",potassium thiocyanate 900 mM,61.6 mABS/min
same,"Change in absorbance, Without antibody (Composition B)",potassium thiocyanate 900 mM,60.1 mABS/min
same,Relative sensitivity,potassium thiocyanate 900 mM,125.5%
same,Percent residual enzyme activity,potassium thiocyanate 900 mM,102.5%
same,relative sensitivity of P-type amylase as multiple of the standard sensitivity,potassium thiocyanate 200 mM,about 1.3
"O=[N+]([O-])c1ccc(O[C@H]2O[C@H](CO)[C@@H](O[C@H]3O[C@H](CO)[C@@H](O[C@H]4O[C@H](CO)[C@@H](O)[C@H](O)[C@H]4O)[C@H](O)[C@H]3O)[C@H](O)[C@H]2O)c(Cl)c1 [Example G3CNP, 2-chloro-4-nitrophenylmaltotrioside, reference compound]","Change in absorbance, Containing Antibody (Composition A)",potassium thiocyanate 0 mM,9.3 mABS/min
same,"Change in absorbance, Without antibody (Composition B)",potassium thiocyanate 0 mM,9.3 mABS/min
same,Relative sensitivity,potassium thiocyanate 0 mM,19.4%
same,Percent residual enzyme activity,potassium thiocyanate 0 mM,100.0%
same,"Change in absorbance, Containing Antibody (Composition A)",potassium thiocyanate 50 mM,17.1 mABS/min
same,"Change in absorbance, Without antibody (Composition B)",potassium thiocyanate 50 mM,17.7 mABS/min
same,Relative sensitivity,potassium thiocyanate 50 mM,37.0%
same,Percent residual enzyme activity,potassium thiocyanate 50 mM,96.6%
same,"Change in absorbance, Containing Antibody (Composition A)",potassium thiocyanate 100 mM,22.3 mABS/min
same,"Change in absorbance, Without antibody (Composition B)",potassium thiocyanate 100 mM,23.4 mABS/min
same,Relative sensitivity,potassium thiocyanate 100 mM,48.9%
same,Percent residual enzyme activity,potassium thiocyanate 100 mM,95.3%
same,"Change in absorbance, Containing Antibody (Composition A)",potassium thiocyanate 140 mM,26.1 mABS/min
same,"Change in absorbance, Without antibody (Composition B)",potassium thiocyanate 140 mM,27.2 mABS/min
same,Relative sensitivity,potassium thiocyanate 140 mM,56.8%
same,Percent residual enzyme activity,potassium thiocyanate 140 mM,96.0%
same,"Change in absorbance, Containing Antibody (Composition A)",potassium thiocyanate 200 mM,30.3 mABS/min
same,"Change in absorbance, Without antibody (Composition B)",potassium thiocyanate 200 mM,31.6 mABS/min
same,Relative sensitivity,potassium thiocyanate 200 mM,66.0%
same,Percent residual enzyme activity,potassium thiocyanate 200 mM,95.9%
same,"Change in absorbance, Containing Antibody (Composition A)",potassium thiocyanate 300 mM,37.3 mABS/min
same,"Change in absorbance, Without antibody (Composition B)",potassium thiocyanate 300 mM,39.3 mABS/min
same,Relative sensitivity,potassium thiocyanate 300 mM,82.0%
same,Percent residual enzyme activity,potassium thiocyanate 300 mM,94.9%
same,"Change in absorbance, Containing Antibody (Composition A)",potassium thiocyanate 400 mM,42.6 mABS/min
same,"Change in absorbance, Without antibody (Composition B)",potassium thiocyanate 400 mM,43.7 mABS/min
same,Relative sensitivity,potassium thiocyanate 400 mM,91.2%
same,Percent residual enzyme activity,potassium thiocyanate 400 mM,97.5%
same,"Change in absorbance, Containing Antibody (Composition A)",potassium thiocyanate 500 mM,46.6 mABS/min
same,"Change in absorbance, Without antibody (Composition B)",potassium thiocyanate 500 mM,46.7 mABS/min
same,Relative sensitivity,potassium thiocyanate 500 mM,97.5%
same,Percent residual enzyme activity,potassium thiocyanate 500 mM,99.8%
same,"Change in absorbance, Containing Antibody (Composition A)",potassium thiocyanate 600 mM,48.1 mABS/min
same,"Change in absorbance, Without antibody (Composition B)",potassium thiocyanate 600 mM,47.5 mABS/min
same,Relative sensitivity,potassium thiocyanate 600 mM,99.2%
same,Percent residual enzyme activity,potassium thiocyanate 600 mM,101.3%
same,"Change in absorbance, Containing Antibody (Composition A)",potassium thiocyanate 700 mM,49.9 mABS/min
same,"Change in absorbance, Without antibody (Composition B)",potassium thiocyanate 700 mM,49.4 mABS/min
same,Relative sensitivity,potassium thiocyanate 700 mM,103.1%
same,Percent residual enzyme activity,potassium thiocyanate 700 mM,101.0%
same,"Change in absorbance, Containing Antibody (Composition A)",potassium thiocyanate 800 mM,49.8 mABS/min
same,"Change in absorbance, Without antibody (Composition B)",potassium thiocyanate 800 mM,48.8 mABS/min
same,Relative sensitivity,potassium thiocyanate 800 mM,101.9%
same,Percent residual enzyme activity,potassium thiocyanate 800 mM,102.0%
same,"Change in absorbance, Containing Antibody (Composition A)",potassium thiocyanate 900 mM,48.6 mABS/min
same,"Change in absorbance, Without antibody (Composition B)",potassium thiocyanate 900 mM,47.9 mABS/min
same,Relative sensitivity,potassium thiocyanate 900 mM,100.0%
same,Percent residual enzyme activity,potassium thiocyanate 900 mM,101.5%
same,relative sensitivity of P-type amylase as multiple of the standard sensitivity,potassium thiocyanate 200 mM,about ⅔
